Laboratory results as given in US20140155420A1, “INHIBITORS OF EYA2” (The Regents of the University of Colorado, a body corporate, priority 2011, published 2014).
Entries after “also recorded” stand apart in the source; their conditions may differ.

Assays:
[1] = test system: Six1/Eya2-mediated transcription; assay: MEF3-promoter luciferase assay in MCF7 cells; assay type: cell-based; settings: compound incubated 48 hours
Method: MCF7 cells were plated in 24-well plates at 25,000 cells/well. 24 hours later, cells were transfected with 300 ng/well pGL3-6xMEF3 (a promoter-luciferase construct in which the promoter contains 6 well characterized Six1 MEF3 binding sites (Spitz et al., 1998)), 70 ng/well renilla luciferase, 100 ng/well pcDNA3.1 Six1, and 200 ng/well of pcDNA3.1-FLAG-Eya2 using FuGENE 6 (Roche Applied Science) transfection reagent. The following day the media was changed and 24 hours later lysates were prepared and analyzed with the Dual Luciferase Kit (Promega) on a Modulus Microplate (Turner Biosystems). An Eya2 phosphatase-dead mutant (D274N) was also used in place of wild type Eya2 to evaluate the effect of Eya2's phosphatase activity on transcription. To assay the effect of Eya2 phosphatase inhibitors on transcriptional activity, compound was added 24 hours after transfection and incubated for 48 hours before lysates were prepared and analyzed for luciferase activity as described above. All results were normalized to renilla activity to account for transfection efficiency and transcriptional activity was normalized to Eya2 protein expression in the Eya2 D274N rescue experiment. The inhibitory effect of the compounds was normalized to vehicle-treated control and statistical significance was determined by performing a one-way ANOVA with Dunnett's post-test on the natural log transformed normalized transcriptional activity.

[2] = UV-Vis spectra with Mg2+ titration; assay type: physicochemical; settings: acetonitrile; for λmax without Mg2+ / λmax with Mg2+: 25 μM compound; for λmax without Mg2+: 0 mM Mg2+
Method: Compounds were dissolved in acetonitrile at a final concentration of 25 μM with final Mg^2+ concentration at 0, 0.5, 1, 5, 10, 25, 50, 100 and 200 mM. UV-visible spectra were obtained using an Agilent 8453 UV-Visible Spectrophotometer (Agilent Technologies) in 0.1 cm quartz cuvette at room temperature.
In order to elicit any possible weak association to Mg^2+, the inventors moved on to the organic solvent acetonitrile (Hojo et al., 2002). […] The solutions were prepared such that the absorbance was within the 0-1 range.

[3] = UV-Vis spectra with Na+ titration; assay type: physicochemical; settings: acetonitrile
Method: In order to elicit any possible weak association to Mg^2+, the inventors moved on to the organic solvent acetonitrile (Hojo et al., 2002). […] The solutions were prepared such that the absorbance was within the 0-1 range. They observed a dose-dependent shift in the maximum absorbance wavelength (λmax), from 322 nm (0 mM Mg^2+) to 334 nm (100 mM Mg^2+) (FIGS. 11B, 11C). The inventors conducted a similar study with Na where the compound concentration was kept at 12.5 μM and the sodium perchlorate concentration ranged from 0 to 25 mM.

[4] = biological target: T1, Eya2 ED (Homo sapiens, UniProt O00167); settings: no extra Mg2+ added
T1 sequence (O00167 253-538): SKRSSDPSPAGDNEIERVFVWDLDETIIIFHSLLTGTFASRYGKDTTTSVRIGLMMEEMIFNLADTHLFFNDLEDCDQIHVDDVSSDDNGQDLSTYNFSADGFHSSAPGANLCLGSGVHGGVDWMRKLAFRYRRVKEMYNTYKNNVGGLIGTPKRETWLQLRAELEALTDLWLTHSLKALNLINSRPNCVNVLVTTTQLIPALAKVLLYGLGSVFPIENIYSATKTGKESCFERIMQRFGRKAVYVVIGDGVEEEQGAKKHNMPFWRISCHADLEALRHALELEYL
Method: In order to provide evidence for the binding between hydrazides with Eya2, thermal shift experiments were performed to evaluate if Eya2 melting temperature (Tm) could be positively shifted in the presence of different concentrations of hydrazides. Compounds were serially diluted in DMSO in 96-well polypropylene plates (Thermo Fisher Scientific). A mixture of 49 μl of Eya2 and SYPRO Orange (5000× stock solution, Invitrogen) were transferred to a 96-well skirted thin-wall PCR plate (Bio-Rad) with a final concentration of 1 μM and 5×, respectively. Compounds prepared in the aforementioned mother plate were subsequently added to the protein-dye mixture, with final concentrations ranging from 0.34 nM to 200 μM (final volume 50 μl). DMSO alone was also transferred within each compound dilution series as a control sample. DMSO concentration was consistent across each dilution series and was maintained at 2%. The plate was sealed with Optical-Quality Sealing Tape (Bio-Rad) and was centrifuged at 1000 rpm for 20 s before heating commenced. Plate heating was performed on an iQ5 real-time PCR detection system (Bio-Rad) from 20 to 95° C. with an increment of 1° C. and a ramping rate of 0.1° C./s. A CCD camera was used to measure SYPRO Orange fluorescence through a filter set corresponding to excitation and emission wavelengths of 490 and 575 nm, respectively. […]

Compound: O=C(N/N=C/c1ccc(Sc2ccccn2)o1)c1cccc(F)c1 [MLS000544460]
- Effect on Six1/Eya2-mediated transcription from the MEF3-luciferase reporter [1]: inhibit
- Effect on Six1/Eya2-mediated transcription from the MEF3-luciferase reporter ([1]; listed as MLS00044460): diminish
- Intrinsic affinity for Mg2+ [2]: very weak intrinsic affinity
- λmax without Mg2+ [2]: 322 nm
- λmax with Mg2+ ([2]; 100 mM Mg2+): 334 nm
- λmax when titrated with Na+ [3]: 323 nm

Compound: O=C(N/N=C/c1ccc(Sc2ccccn2)o1)c1ccncc1 [NCGC00241224]
- Effect on Six1/Eya2-mediated transcription from the MEF3-luciferase reporter [1]: does not significantly affect; also recorded: does not significantly inhibit

Compound: O=C(O)CN(CCN(CC(=O)O)CC(=O)O)CC(=O)O [EDTA]
- Effect on ED melting temperature (Tm) [4]: reduces Tm

Compound: Cc1ccccc1C(=O)N/N=C/c1ccc(Sc2ccccn2)o1 [MLS000585814]
- Effect on Six1/Eya2-mediated transcription from the MEF3-luciferase reporter [1]: diminish; also recorded: inhibit
- λmax without Mg2+ [2]: 316 nm
- λmax with Mg2+ ([2]; 50 mM Mg2+): 327 nm
